One block for each molecule: values may come before it.
Columns and labels:
LPO [1] = molecular target: T1, LPO (Bos taurus, UniProt P80025); experiment: Oxidation of β2-agonists by LPO/H2O2 (glucose/glucose oxidase), spectrophotometric ΔA315; type: biochemical, bovine; settings: 1 mM glucose/0.2 μg/mL glucose oxidase, pH 7.0, 30 min, % of control; for Amount of metabolite formed ΔA315 (%) Fenoterol: 50 μM fenoterol, 158 nM LPO; for Amount of metabolite formed ΔA315 (%) Salbutamol: 100 μM salbutamol, 216 nM LPO
T1 construct: Lactoperoxidase (LPO) from bovine milk (EC 1.11.1.7); purchased Sigma-Aldrich Co. (St. Louis, Mo.); host or cells: bovine milk (natural source)
Method: (§1) Spectrophotometric Measurements. Spectra are measured using an Agilent diode array spectrophotometer model 8453 (Agilent Technologies, Inc., Santa Clara, Calif.). Oxidation of β2-agonists is studied by measuring absorption spectra at designated time points following reaction starts. Samples are prepared in 50 mM acetate buffer (pH 5.0), 50 and 100 mM phosphate buffers (pH 7.0 and 8.0) and 100 mM Tris/HCl (pH 9.19). All buffers contain DTPA (100 and 200 μM) and measurements are performed at an ambient temperature of 20° C. The reaction is started by the addition of a small aliquot of H2O2 (2, 5 or 10 μL), or glucose oxidase (1 μL), if glucose/glucose oxidase was used to generate H2O2, to a sample containing a studied compound, peroxidase and, if required, an inhibiting co-factor. Time course measurements are carried out following changes in absorbance at 315 nm in 15 second intervals versus absorbance at 800 nm, where none of the compounds absorb. The 315 nm wavelength is chosen because β2-agonists' oxidation products absorb intensely near 315 nm, and because it is close to the absorption maximum of tyrosine dimers.
In certain experiments, oxidation of β2-agonists by peroxidases is carried out using H2O2 generated by the reaction of glucose (1 mM) with glucose oxidase (0.2 μg/mL). The rate of H2O2 generation in these systems was estimated based on the rate of oxidation of ABTS (1 mM) to the green ABTS radical cation (ABTS^•+) by HRP, at increasing concentrations of the enzyme. Concentrations of glucose and glucose oxidase are the same as those used in experiments with β2-agonists. The plot of the rate of ABTS^•+ oxidation at 420 nm (determined from the linear portion of kinetic runs) versus [HRP] is a curve, which plateaus above a certain threshold value [HRP]. The mean value of the rate from the plateau region (dA420/dt=ε420×d[ABTS^•+]/dt) is taken as the rate at which all H2O2 produced glucose/glucose was immediately used up by the enzyme to oxidize ABTS. Calculations are performed using […] (ABTS^•+ of 3.6×10^4 M^−1 cm^−1) (Childs et al. (1975) Biochem. […].
H2O2 is generated by 1 mM glucose and 0.2 μg/mL glucose oxidase. Oxidation of 50 μM fenoterol and 100 μM salbutamol is carried out in 0.1 M potassium phosphate buffer (pH 7.0) containing 0.1 mM DTPA in the presence of LPO (158 nM LPO for fenoterol and 216 nM for salbutamol). The extent of inhibition is determined by measuring ΔA315 during 30 minutes of reaction and is expressed as % of control (mean±SE from at least two determinations).

MPO = MPO (Homo sapiens, UniProt P05164); experiment: Oxidation of β2-agonists by MPO/H2O2, spectrophotometric ΔA315; type: biochemical; parameters: Myeloperoxidase (MPO) from human leucocytes (lyophilized powder); purchased Axxora, LLC (San Diego, Calif.); host or cells: human leucocytes (natural source); settings: 200 mU/mL MPO
Method: as §1
The concentration of AscH^− in airway fluid was estimated to be near 100 μM (Id.), so we use concentrations within this physiological range. […] AscH^− affects oxidation of salbutamol and fenoterol similarly, causing delay in the net oxidation of both drugs. A315 increases after a lag period, the duration of which depends on AscH^− concentration. Net oxidation of the drugs occurs only when AscH^− is consumed. […] This is understandable given that the concentration of H2O2 was only 50 μM and the peroxide was used to oxidize both the drugs and AscH^−. […] The proposed mechanisms of inhibition are reactions A and B, shown below, which reveal that recovery of the drug occurs at the expense of AscH^−, which is oxidized to the ascorbate radical (A^•−).
[…]. The extent of oxidation is expressed as ΔA315±SE versus control (in %) during 22 minutes of reaction at 20° C. Values are the mean of at least duplicate determinations.

LPO [2] = molecular target: T1, LPO; experiment: Nitration of salbutamol by LPO/H2O2/NO2−, A410; type: biochemical, bovine
Method: Spectrophotometric Measurements. Spectra are measured using an Agilent diode array spectrophotometer model 8453 (Agilent Technologies, Inc., Santa Clara, Calif.). Nitration of salbutamol is studied by measuring absorption spectra at designated time points following the start of the reaction. Samples are prepared in 100 mM phosphate buffers (pH 7.0). All buffers contained DTPA (100 μM) or are pretreated with Chelex-100 before use, and measurements are performed at ambient temperature of 20° C. Typically, the reaction is started by the addition of a small aliquot of H2O2 or the desired peroxidase. Time course measurements are carried out following changes in absorbance at 410 nm in 30 second intervals versus absorbance at 800 nm, where none of the compounds absorb.
Ascorbate (AscH^−) is an effective natural antioxidant protecting airways from oxidative injury. Cross et al., (1994) Environ. Health Perspect. 102 (suppl. 10):185-191. Its concentration in the respiratory tract lining fluid is estimated to be near 100 μM (Id.). We examine the effect of AscH^− on nitration of 100 μM salbutamol by 67 nM LPO, 4 mM H2O2, and 3.5 mM of NaNO2 by measuring absorption at 410 nm. […] The duration of the lag period depends on AscH^− concentration. […] See, e.g., Reszka et al. (1999) Free Radic. Biol. & Med. 26:669-678.
As noted earlier, methimazole is an antithyroid drug, an effective inhibitor of LPO activity. 100 μM of salbutamol is reacted with 73 nM LPO, 3.5 mM NaNO2, and 4 mM H2O2 at pH buffer 7.0 in the presence of 0, 27, 55, and 109 μM methimazole (shown in FIG. 9, section A, traces a-d, respectively). Traces c and d also indicate by arrow when additional LPO is added to the system. […] In contrast to effects exerted by AscH^− or SCN^−, methimazole-dependent inhibition is permanent and is probably due to inactivation of the enzyme, since a second dose of LPO reactivates the process (FIG. 9, section A, trace c).
Dapsone, an anti-inflammatory and anti-leprotic agent, is a potent inhibitor of LPO and MPO. See, e.g., Kettle et al. (1991) Biochem. Pharmacol. 41(10):1485-1492; Bozeman et al. (1992) Biochem. Pharmacol. 44(2):553-563. 97 μM of salbutamol is reacted with 65 nM LPO, 3.4 mM NaNO2, and 4 mM H2O2 at pH buffer 7.0 in the presence of 0, 2.5, 5, 10, 50, and 100 μM dapsone (shown in FIG. 10, traces a-f, respectively). The arrows in traces d and e of FIG. 10 indicate where additional LPO is added to the system. […] Dapsone at 50 μM inhibited nitration by approximately 86%. Given the high concentrations of NaNO2 and H2O2 used in this system, dapsone appears to be a potent blocker of nitration.
The extent of nitration is expressed as a change in ΔA410 versus control (dapsone omitted) taken as 100% after 10, 30, and 60 minute reactions for LPO, MPO, and EPO nitrating systems, respectively. Results equal the means±SE of at least two measurements. In the LPO system, 100 μM of salbutamol, 3.4 mM of NaNO2, 4 mM of H2O2, and 65 nM of LPO is used. In the MPO system, 50 μM of salbutamol, 5.0 mM of NaNO2, 5 mM of H2O2, and 0.2 U/mL of MPO is used. In the EPO system, 50 μM of salbutamol, 5 mM of NaNO2, 2 mM of H2O2, and 0.075 U/mL of EPO is used. All reactions were carried out in pH 7.0 phosphate buffer containing DMSO (5% v/v). The term “nitrophenols” includes nitrosalbutamol (N-Sal) and salbutamol-derived nitrophenol (N—ArOH).

[3] = inhibitor 0.1 mM, listed as L-methionine
[4] = inhibitor 1 mM, listed as azide
[5] = inhibitor 0.1 mM, listed as thiocyanate

MPO, sequence (P05164 279-745 limits assumed): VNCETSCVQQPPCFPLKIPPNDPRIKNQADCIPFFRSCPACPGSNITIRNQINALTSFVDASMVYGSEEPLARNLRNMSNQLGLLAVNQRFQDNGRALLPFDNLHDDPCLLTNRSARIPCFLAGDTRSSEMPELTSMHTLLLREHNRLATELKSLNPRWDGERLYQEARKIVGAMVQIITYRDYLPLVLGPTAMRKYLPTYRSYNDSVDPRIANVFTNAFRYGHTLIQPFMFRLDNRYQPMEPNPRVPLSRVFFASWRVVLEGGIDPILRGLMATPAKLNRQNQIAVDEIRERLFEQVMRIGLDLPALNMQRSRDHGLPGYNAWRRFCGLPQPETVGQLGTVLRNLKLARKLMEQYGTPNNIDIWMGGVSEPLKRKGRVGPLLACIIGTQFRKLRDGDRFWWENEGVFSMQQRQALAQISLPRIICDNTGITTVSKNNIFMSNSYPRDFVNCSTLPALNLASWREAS
MPO, sequence (P05164 165-273 limits assumed): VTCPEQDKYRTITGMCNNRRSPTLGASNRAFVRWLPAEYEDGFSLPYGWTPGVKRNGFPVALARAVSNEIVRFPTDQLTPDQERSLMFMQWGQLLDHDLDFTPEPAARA

Molecule: [N-]=[N+]=[N-].[Na+] [NaN3]
ΔA315 (%) Fenoterol, extent of oxidation versus control (MPO; 1 mM fenoterol, 50 μM H2O2, pH 7.0, 22 min, 20° C., co-factor 1 mM): 17.9 ± 4.2%
ΔA315 (%) Salbutamol, extent of oxidation versus control (MPO; 1 mM salbutamol, 50 μM H2O2, pH 7.0, 22 min, 20° C., co-factor 1 mM): 6.6 ± 1.3%
Amount of metabolite formed ΔA315 (%) Fenoterol (LPO [1]; inhibitor 1 mM): 45.5 ± 3.9%
Amount of metabolite formed ΔA315 (%) Fenoterol (LPO [1]; [4]): strongly inhibited
Amount of metabolite formed ΔA315 (%) Salbutamol (LPO [1]; inhibitor 1 mM): 17.4 ± 7.1%
Amount of metabolite formed ΔA315 (%) Salbutamol (LPO [1]; [4]): strongly inhibited

Molecule: N#C[S-].[Na+] [NaSCN]
Nitration of salbutamol by LPO/H2O2/NO2− (A410 versus time) (LPO [2]; 50 μM NaSCN): completely prevented
Nitration of salbutamol by LPO/H2O2/NO2− (A410 versus time) (LPO [2]; [NaSCN] <50 μM (10, 25 μM)): only transiently
Amount of metabolite formed ΔA315 (%) Fenoterol (LPO [1]; inhibitor 0.1 mM): 22.8 ± 3.8%
Amount of metabolite formed ΔA315 (%) Fenoterol (LPO [1]; [5]): markedly inhibit
Amount of metabolite formed ΔA315 (%) Salbutamol (LPO [1]; inhibitor 0.1 mM): 5.5 ± 7.3%
Amount of metabolite formed ΔA315 (%) Salbutamol (LPO [1]; [5]): markedly inhibit

Other lines, results leading:

Amount of metabolite formed ΔA315 (%) Fenoterol (LPO [1]; inhibitor 0.1 mM): 103.7 ± 2.0%
Amount of metabolite formed ΔA315 (%) Fenoterol (LPO [1]; [3]): inactive
Amount of metabolite formed ΔA315 (%) Fenoterol (LPO [1]; inhibitor 2 mM): 95.0 ± 3.5%
Amount of metabolite formed ΔA315 (%) Salbutamol (LPO [1]; inhibitor 0.1 mM): 105.5 ± 16.2%
Amount of metabolite formed ΔA315 (%) Salbutamol (LPO [1]; [3]): inactive
Molecule: CSCC[C@H](N)C(=O)O [Methionine, L-methionine]

ΔA315 (%) Fenoterol, extent of oxidation versus control (MPO; 100 μM fenoterol, 50 μM H2O2, pH 7.0, 30 min, co-factor 0.1 mM): 43.3 ± 14.5%
ΔA315 (%) Salbutamol, extent of oxidation versus control (MPO; 100 μM salbutamol, 50 μM H2O2, pH 7.0, 30 min, co-factor 0.1 mM): 62.0 ± 17.3%
Molecule: N[C@@H](CCC(=O)N[C@@H](CS)C(=O)NCC(=O)O)C(=O)O [GSH, glutathione]

ΔA315 (%) Fenoterol, extent of oxidation versus control (MPO; 1 mM fenoterol, 50 μM H2O2, pH 7.0, 22 min, 20° C., co-factor 235 U/mL): 0.0%
ΔA315 (%) Salbutamol, extent of oxidation versus control (MPO; 1 mM salbutamol, 50 μM H2O2, pH 7.0, 22 min, 20° C., co-factor 235 U/mL): 0.0%
B1: Catalase: catalase from bovine liver (EC 1.11.1.6; 2,350 U/mg) (protein, UniProt P00432 2-527, looked up)
Catalase: ADNRDPASDQMKHWKEQRAAQKPDVLTTGGGNPVGDKLNSLTVGPRGPLLVQDVVFTDEMAHFDRERIPERVVHAKGAGAFGYFEVTHDITRYSKAKVFEHIGKRTPIAVRFSTVAGESGSADTVRDPRGFAVKFYTEDGNWDLVGNNTPIFFIRDALLFPSFIHSQKRNPQTHLKDPDMVWDFWSLRPESLHQVSFLFSDRGIPDGHRHMNGYGSHTFKLVNANGEAVYCKFHYKTDQGIKNLSVEDAARLAHEDPDYGLRDLFNAIATGNYPSWTLYIQVMTFSEAEIFPFNPFDLTKVWPHGDYPLIPVGKLVLNRNPVNYFAEVEQLAFDPSNMPPGIEPSPDKMLQGRLFAYPDTHRHRLGPNYLQIPVNCPYRARVANYQRDGPMCMMDNQGGAPNYYPNSFSAPEHQPSALEHRTHFSGDVQRFNSANDDNVTQVRTFYLKVLNEEQRKRLCENIAGHLKDAQLFIQKKAVKNFSDVHPEYGSRIQALLDKYNEEKPKNAVHTYVQHGSHLSAREKANL

Reference: patent US20120093947A1, “METHOD OF TREATING REACTIVE AIRWAY DISEASE” (UNITED STATES DEPARTMENT OF VETERANS AFFAIRS, priority 2009, published 2012)
